Where two headings read alike, the source gives them in different places.
How the values were obtained:
[1] = tested on: platelet aggregation; experiment: Inhibitory activity of platelet aggregation (sodium arachidonate induced, platelet-rich plasma); type: cell-based; conditions: Oryctolagus cuniculus, rabbit plasma, sodium arachidonate 400 μM, read-out: IC100 (concentration necessary for inhibiting platelet aggregation perfectly)
Protocol: After collecting blood specimen from the auricular vein of a male rabbit of an ordinary race in the presence of citrate, the thus collected blood was subjected to centrifugation to obtain a platelet-rich plasma (PRP) and a platelet-poor plasma (PPP) therefrom. The plasma containing 300,000 platelets/μl was prepared by diluting the PRP with the PPP, and divided equally into two portions.
Into the first portion of the thus obtained plasma mixture, as control, dimethylsulfoxide was added, and then, an aqueous solution of sodium arachidonate as an aggregation agent prepared by dissolving thereof into a saline solution was added to the resultant mixture to adjust the final concentration of the arachidonate therein to 400 μM.
On the other hand, into the second portion thereof, a solution of each of the present compounds shown in Table 1 in dimethylsulfoxide was added, and then, the above-mentioned aqueous solution of sodium arachidonate was added to the resultant mixture.
The platelet aggregation reactions were measured with the aid of a platelet aggregation tracer (model PAT-4A, made by NIKO Bioscience Co., Ltd.) and its IC100 values (the concentration of an agent necessary for inhibiting platelet aggregation perfectly) are shown in Table 1.

[2] = tested on: migration of polymorphonuclear leukocytes; experiment: Inhibition of migration of polymorphonuclear leukocytes, in vivo pouch-CMC method; parameters: species or system male Donryu rats
Protocol: The activity of each of the present compounds in in vivo inhibiting the migration of polymorphonuclear leukocytes was examined by the pouch-CMC method presented by Ishikawa (refer to J. Pharmaceut. Soc., Japan, 88, 1472, 1968) using male Donryu rats.
After cutting the hairs on the back of each male Donryu rat at a 5 cm square, 5 ml of air were subcutaneously injected into the hair-cut position, and after 24 hours of the injection, 5 ml of a 0.2% solution of sodium carboxymethylcellulose in a saline was injected into the pouch made by the injected air.
After dividing the rats into 3 groups, an aqueous 0.2% solution of carboxymethylcellulose was orally administered to each rat of the first group at a rate of 1 ml/100 g body weight (as control), and each of the present compounds (Compounds Nos. 1, 2 and 4) was orally administered to each rat of the second group after suspending the compound in an aqueous 0.2% solution of carboxymethylcellulose. Each rat of the third group is orally administered with an aqueous solution of indomethacin as positive control.
After 3 and 6 hours of the injection, the exudates in the pouch were collected from each rat, and the number of polymorphonuclear leukocytes (hereinafter referred to as PMN) exudated was counted and, the results are shown in Table 2.

[3] = tested on: granuloma formation; type: in vivo, male Donryu rats; conditions: 10 days
Protocol: The activity of the present compounds in inhibiting the granuloma formation was examined according to the method of Fujimura et al. (refer to "OYO YAKURI", 19(3), 329(1981)) while using male Donryu rats of 5 weeks after birth as follows.
(§1) After burying a paper disk of 13 mm in diameter and 0.26 mm in thickness immersed in an aqueous 2% solution of carboxymethylcellulose (hereinafter referred to as CMC) containing both dihydroxystreptomycin and penicillin (both of 10^6 unit at a rate of 0.1 mg/ml) into the back of each rat under anesthesia by ether, the rats were divided into four groups. To rats of the first group, an aqueous 0.3% solution of CMC was orally administered every day for 10 days, to rat of the second group, an aqueous dispersion of one of the present compounds shown in Table 3 in an aqueous 0.3% solution of CMC was orally administered every day for 10 days and to rat of the third and fourth groups, an aqueous 0.3% solution of CMC containing either indomethacin or prednisolone was orally administered every day for 10 days.
The rate of inhibiting the granuloma formation was obtained from the following formula: [formula] wherein T is the average weight of granuloma in the test group and C is the average weight of granuloma in the control group.

[4] = tested on: adjuvant arthritis; experiment: Inhibitory activity of adjuvant arthritis; type: in vivo, male Lewis rats; conditions: for Increment of the volume of hind paw after 21 days of injection (I1): at beginning of administration; for Increment of the volume of hind paw after 36 days of injection (I2) / Rate of inhibiting adjuvant arthritis: 14 days
Protocol: The activity of the present compound in inhibiting the adjuvant arthritis was examined while using groups of male Lewis rats of 8 weeks after birth and according to the method of Fujihira et al. (refer to "OYO YAKURI", 5(2), 169, (1971)) as follows.
Groups of 8 rats were used, and to each rat of whole groups under anesthesia by ether, a Freund's complete adjuvant dissolved in mineral oil at a concentration of 0.6 mg/0.1 ml was injected intradermally into the trail thereof.
After 3 weeks of the injection, to each rat of a group an aqueous dispersion of one of the present compounds shown in Table 4 in an aqueous 0.3% solution of CMC was orally administered every day for 14 days, and to each of the control group, the aqueous 0.3% solution of CMC was administered in a similar manner, each rat of the positive control group being treated with the similar oral administration of prednisolone in the aqueous 0.3% solution of CMC. The volume of the hind paw of each rat was measured on the day of starting the administration and on the next day after finishing the administration.
The results of the test are shown in Table 4 as the increment of the volume of the hind paw and the rate of inhibiting the increase of the volume thereof.
The increment of the volume of the hind paw at the beginning of the administration, namely after 21 days of the injection of the complete adjuvant (I1), and the increment of that after the finishing of the injection, namely after 36 days of the injection of the complete adjuvant (I2) are respectively as follows.
wherein V0 is the volume of the hind paw just before the injection, V1 is that after 21 days of the injection and V2 is that after 36 days of the injection.
The rate of inhibiting the increase of the volume of the hind paw, namely the activity of treating the adjuvant arthritis is obtained by the following formula: [formula]

[5] = parameters: species or system male Donryu rats; conditions: rat, in vivo
Protocol: as §1

Which IC100 [1] does the source give for `CCCCNC(=O)c1ccc(O)c(O)c1` [compound 3, N--(n-butyl)-3,4-dihydroxybenzamide] here?
Its IC100 is 45 µM.

Which IC100 [1] does the source give for `O=C(c1ccc(O)c(O)c1)N1CCCCC1` [compound 4, 3,4-dihydroxybenzpiperidide] here?
The IC100 was 65 µM.

What about the “Inhibition rate of exudation of PMN” value ([2]; after 3 hr, 50 mg/kg oral) of the same compound?
Its value is 46.9%.

What about the “Number of PMN in exudated liquid” value ([2]; after 3 hr, 50 mg/kg oral) of the same compound?
The value was 2.6 (number/mm^3) × 10^3.

And the “Inhibition rate of exudation of PMN” value ([2]; after 6 hr, 50 mg/kg oral)?
Its value is 25.2%.

What about the “Number of PMN in exudated liquid” value ([2]; after 6 hr, 50 mg/kg oral) of the same compound?
Its value is 16.3 (number/mm^3) × 10^3.

And the “Rate of inhibition of granuloma formation” value ([3]; 25 mg/kg/day oral)?
The value was 49%.

And the “Weight of dried granuloma” value ([3]; 25 mg/kg/day oral)?
Its value is 146 mg.

What about the “Rate of inhibition of granuloma formation” value ([3]; 50 mg/kg/day oral) of the same compound?
Its value is 65%.

What about the “Weight of dried granuloma” value ([3]; 50 mg/kg/day oral) of the same compound?
Its value is 101 mg.

With `O=C(NCCCc1ccccc1)c1ccc(O)c(O)c1` [compound 6, N--(ω-phenylpropyl)-3,4-dihydroxybenzamide] as the compound, how does the IC100 [1] read?
Its IC100 is 80 µM.

What does the source list for `O=C(Nc1ccccn1)c1ccc(O)c(O)c1` [Compound No. 2, N--(2-pyridyl)-3,4-dihydroxybenzamide]?
IC100 [1]: 25 µM; Inhibition rate of exudation of PMN ([2]; after 3 hr, 50 mg/kg oral): 53.1%; Number of PMN in exudated liquid ([2]; after 3 hr, 50 mg/kg oral): 2.3 (number/mm^3) × 10^3; Inhibition rate of exudation of PMN ([2]; after 6 hr, 50 mg/kg oral): 37.6%; Number of PMN in exudated liquid ([2]; after 6 hr, 50 mg/kg oral): 13.6 (number/mm^3) × 10^3; Rate of inhibition of granuloma formation ([3]; 25 mg/kg/day oral): 64%; Weight of dried granuloma ([3]; 25 mg/kg/day oral): 98 mg; Rate of inhibition of granuloma formation ([3]; 50 mg/kg/day oral): 76%; Weight of dried granuloma ([3]; 50 mg/kg/day oral): 69 mg; Increment of the volume of hind paw after 21 days of injection (I1) ([4]; 25 mg/kg/day group): 1.32 mL; Increment of the volume of hind paw after 36 days of injection (I2) ([4]; 25 mg/kg/day oral): 0.51 mL; Rate of inhibiting adjuvant arthritis ([4]; 25 mg/kg/day oral): 61%; Increment of the volume of hind paw after 21 days of injection (I1) ([4]; 50 mg/kg/day group): 1.30 mL; Increment of the volume of hind paw after 36 days of injection (I2) ([4]; 50 mg/kg/day oral): 0.53 mL; Rate of inhibiting adjuvant arthritis ([4]; 50 mg/kg/day oral): 59%

Which “Inhibition rate of exudation of PMN” value ([2]; after 3 hr, 3 mg/kg oral) does the source give for `COc1ccc2c(c1)c(CC(=O)O)c(C)n2C(=O)c1ccc(Cl)cc1` [indomethacin, reference compound] here?
The value was 20.4%.

And the “Number of PMN in exudated liquid” value ([2]; after 3 hr, 3 mg/kg oral)?
Its value is 3.9 (number/mm^3) × 10^3.

What about the “Inhibition rate of exudation of PMN” value ([2]; after 6 hr, 3 mg/kg oral) of the same compound?
Its value is 22.0%.

What about the “Number of PMN in exudated liquid” value ([2]; after 6 hr, 3 mg/kg oral) of the same compound?
The value was 17.0 (number/mm^3) × 10^3.

And the “Rate of inhibition of granuloma formation” value ([3]; 3 mg/kg/day oral)?
The value was 39%.

And the “Weight of dried granuloma” value ([3]; 3 mg/kg/day oral)?
Its value is 175 mg.

What about the “autopsy findings, gastric” value [5] of the same compound?
The value was “hemorrhage from the gastric mucosa and formation of stomach ulcer were found”.

Which “Rate of inhibition of granuloma formation” value ([3]; 3 mg/kg/day oral) does the source give for `C[C@]12C=CC(=O)C=C1CC[C@@H]1[C@@H]2[C@@H](O)C[C@@]2(C)[C@H]1CC[C@]2(O)C(=O)CO` [prednisolone, reference compound] here?
Its value is 45%.

What about the “Weight of dried granuloma” value ([3]; 3 mg/kg/day oral) of the same compound?
Its value is 158 mg.

And the “Increment of the volume of hind paw after 21 days of injection (I1)” value (shortened to “Increment of the volume of hind paw … (I1)”) ([4]; 3 mg/kg/day group)?
Its value is 1.27 mL.

And the “Increment of the volume of hind paw after 36 days of injection (I2)” value (from here on “Increment of the volume of hind paw … (I2)”) ([4]; 3 mg/kg/day oral)?
The value was 0.71 mL.

And the “Rate of inhibiting adjuvant arthritis” value ([4]; 3 mg/kg/day oral)?
The value was 44%.

And the “autopsy findings, gastric” value [5]?
Its value is “hemorrhage from the gastric mucosa and formation of stomach ulcer were found”.

What about the “autopsy findings, thymus” value [5] of the same compound?
The value was “atrophy of the thymus was significantly found”.

For `CN1CCN(C(=O)c2ccc(O)c(O)c2)CC1` [compound 7, 3,4-dihydroxybenz-N--methylpiperazide], which IC100 [1] is on record?
Its IC100 is 300 µM.

With `CCCCCCCCNC(=O)c1ccc(O)c(O)c1` [Compound No. 1, N-(n-octyl)-3,4-dihydroxybenzamide] as the compound, how does the IC100 [1] read?
Its IC100 is less than 18 µM.

What about the “Inhibition rate of exudation of PMN” value ([2]; after 3 hr, 50 mg/kg oral) of the same compound?
Its value is 51.0%.

And the “Number of PMN in exudated liquid” value ([2]; after 3 hr, 50 mg/kg oral)?
Its value is 2.4 (number/mm^3) × 10^3.

And the “Inhibition rate of exudation of PMN” value ([2]; after 6 hr, 50 mg/kg oral)?
Its value is 22.9%.

What about the “Number of PMN in exudated liquid” value ([2]; after 6 hr, 50 mg/kg oral) of the same compound?
Its value is 16.8 (number/mm^3) × 10^3.

What about the “Rate of inhibition of granuloma formation” value ([3]; 25 mg/kg/day oral) of the same compound?
Its value is 53%.

And the “Weight of dried granuloma” value ([3]; 25 mg/kg/day oral)?
Its value is 135 mg.

And the “Rate of inhibition of granuloma formation” value ([3]; 50 mg/kg/day oral)?
Its value is 72%.

And the “Weight of dried granuloma” value ([3]; 50 mg/kg/day oral)?
The value was 80 mg.

What about the “Increment of the volume of hind paw … (I1)” value ([4]; 25 mg/kg/day group) of the same compound?
The value was 1.29 mL.

What about the “Increment of the volume of hind paw … (I2)” value ([4]; 25 mg/kg/day oral) of the same compound?
Its value is 0.65 mL.

What about the “Rate of inhibiting adjuvant arthritis” value ([4]; 25 mg/kg/day oral) of the same compound?
Its value is 50%.

What about the “Increment of the volume of hind paw … (I1)” value ([4]; 50 mg/kg/day group) of the same compound?
The value was 1.28 mL.

What about the “Increment of the volume of hind paw … (I2)” value ([4]; 50 mg/kg/day oral) of the same compound?
Its value is 0.59 mL.

What about the “Rate of inhibiting adjuvant arthritis” value ([4]; 50 mg/kg/day oral) of the same compound?
The value was 54%.

With `CCCCCCCCCCCCNC(=O)c1ccc(O)c(O)c1` [compound 5, N--(n-dodecyl)-3,4-dihydroxybenzamide] as the compound, how does the IC100 [1] read?
The IC100 was less than 18 µM.

Reference: patent US4725598A, “Derivative of dihydroxybenzamide and a pharmaceutical composition having an anti-inflammatory activity” (priority 1983, dated 1988)
